# From ChEMBL document CHEMBL5465560, “Selectivity Literature for EUbOPEN Chemogenomic Library” (2024)
# What was measured:
# [1] = target: T1, Serine/threonine-protein kinase Nek11 (Homo sapiens) (UniProt Q8NG66); test: Selectivity interaction (KinomeScan (DiscoverX)) EUB0001049a NEK11; conditions: at 1 µM
# T1 sequence (whole entry): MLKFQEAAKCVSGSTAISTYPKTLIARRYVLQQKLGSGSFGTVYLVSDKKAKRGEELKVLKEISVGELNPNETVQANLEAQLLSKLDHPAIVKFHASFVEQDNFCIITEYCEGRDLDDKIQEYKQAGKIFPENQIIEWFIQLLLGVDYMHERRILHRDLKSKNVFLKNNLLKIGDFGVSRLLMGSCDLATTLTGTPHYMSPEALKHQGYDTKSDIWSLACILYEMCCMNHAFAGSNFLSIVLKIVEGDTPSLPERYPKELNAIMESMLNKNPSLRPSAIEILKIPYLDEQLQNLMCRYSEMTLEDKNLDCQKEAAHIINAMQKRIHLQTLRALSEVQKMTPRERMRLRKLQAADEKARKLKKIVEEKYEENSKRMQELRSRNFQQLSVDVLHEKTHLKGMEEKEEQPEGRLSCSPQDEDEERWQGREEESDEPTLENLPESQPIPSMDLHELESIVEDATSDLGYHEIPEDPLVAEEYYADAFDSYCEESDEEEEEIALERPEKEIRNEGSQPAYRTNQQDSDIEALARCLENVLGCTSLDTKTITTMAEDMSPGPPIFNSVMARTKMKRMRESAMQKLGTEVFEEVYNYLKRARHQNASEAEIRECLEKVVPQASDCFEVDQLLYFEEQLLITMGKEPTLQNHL
# [2] = target: Mitogen-activated protein kinase 1 (Homo sapiens, UniProt P28482); test: Selectivity interaction (KinomeScan (DiscoverX)) EUB0000229b MAPK1; conditions: at 10 µM
# Mitogen-activated protein kinase 1, sequence (P28482 whole entry): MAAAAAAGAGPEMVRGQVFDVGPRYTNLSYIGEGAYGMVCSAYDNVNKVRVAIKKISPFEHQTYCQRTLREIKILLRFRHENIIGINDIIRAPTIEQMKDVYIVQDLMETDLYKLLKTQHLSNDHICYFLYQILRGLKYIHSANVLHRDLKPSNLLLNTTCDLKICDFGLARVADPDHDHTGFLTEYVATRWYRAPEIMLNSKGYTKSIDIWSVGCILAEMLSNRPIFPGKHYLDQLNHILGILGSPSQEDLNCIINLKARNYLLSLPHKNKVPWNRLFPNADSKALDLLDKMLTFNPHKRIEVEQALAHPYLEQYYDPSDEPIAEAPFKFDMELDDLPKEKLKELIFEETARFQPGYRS
# [3] = target: T2, Protein arginine N-methyltransferase 9 (Homo sapiens) (UniProt Q6P2P2); test: Selectivity interaction (Transferase panel (protein, RNA, and DNA methyltransferases. and EP300 (acetyltransferase))) EUB0000270b PRMT9
# T2 sequence (whole entry): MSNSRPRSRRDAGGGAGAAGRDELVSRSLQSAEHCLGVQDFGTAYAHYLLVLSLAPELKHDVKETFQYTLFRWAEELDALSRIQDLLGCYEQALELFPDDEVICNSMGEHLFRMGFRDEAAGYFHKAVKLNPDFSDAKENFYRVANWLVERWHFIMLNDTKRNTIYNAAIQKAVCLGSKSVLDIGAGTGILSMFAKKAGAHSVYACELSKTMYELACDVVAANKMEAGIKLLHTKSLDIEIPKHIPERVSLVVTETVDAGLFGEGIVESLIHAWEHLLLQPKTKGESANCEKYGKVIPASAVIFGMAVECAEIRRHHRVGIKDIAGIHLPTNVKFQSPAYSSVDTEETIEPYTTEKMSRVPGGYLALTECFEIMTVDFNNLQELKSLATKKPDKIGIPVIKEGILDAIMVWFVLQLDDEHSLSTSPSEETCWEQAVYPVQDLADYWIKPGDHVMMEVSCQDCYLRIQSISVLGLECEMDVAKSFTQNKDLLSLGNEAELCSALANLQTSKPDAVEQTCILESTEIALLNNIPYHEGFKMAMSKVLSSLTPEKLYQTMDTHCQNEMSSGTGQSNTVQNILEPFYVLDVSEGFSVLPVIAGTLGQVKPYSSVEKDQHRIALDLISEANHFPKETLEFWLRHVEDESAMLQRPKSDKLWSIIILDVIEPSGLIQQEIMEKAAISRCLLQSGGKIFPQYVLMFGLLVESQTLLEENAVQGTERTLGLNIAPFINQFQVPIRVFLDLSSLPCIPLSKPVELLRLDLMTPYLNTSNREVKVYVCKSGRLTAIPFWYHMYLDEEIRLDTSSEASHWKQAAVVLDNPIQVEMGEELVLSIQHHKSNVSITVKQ
# [4] = target: Calcium/calmodulin-dependent protein kinase type 1D (Homo sapiens) (UniProt Q8IU85); test: Selectivity interaction (ActivX KiNativ screen (kinase selectivity in THP-1 cell lysates)) EUB0000639a CAMK1D; assay type: subcellular; conditions: lysate
# Calcium/calmodulin-dependent protein kinase type 1D (Homo sapiens), sequence (Q8IU85 whole entry, looked up): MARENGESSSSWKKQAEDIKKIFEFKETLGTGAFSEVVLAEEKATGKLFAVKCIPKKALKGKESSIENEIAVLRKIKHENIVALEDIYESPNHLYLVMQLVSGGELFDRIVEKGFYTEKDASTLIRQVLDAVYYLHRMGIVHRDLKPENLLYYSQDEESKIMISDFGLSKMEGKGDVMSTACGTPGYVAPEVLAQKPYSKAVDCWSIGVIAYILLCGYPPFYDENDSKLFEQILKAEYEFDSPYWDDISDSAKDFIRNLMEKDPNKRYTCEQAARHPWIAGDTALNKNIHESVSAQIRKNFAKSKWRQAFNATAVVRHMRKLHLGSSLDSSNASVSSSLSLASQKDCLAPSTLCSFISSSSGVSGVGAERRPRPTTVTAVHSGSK
# [5] = target: Serine/threonine-protein kinase PAK 3 (Homo sapiens) (UniProt O75914); test: Selectivity interaction (KinomeScan (DiscoverX)) EUB0000092b PAK3; conditions: at 10 µM
# Serine/threonine-protein kinase PAK 3 (Homo sapiens), sequence (O75914 whole entry, looked up): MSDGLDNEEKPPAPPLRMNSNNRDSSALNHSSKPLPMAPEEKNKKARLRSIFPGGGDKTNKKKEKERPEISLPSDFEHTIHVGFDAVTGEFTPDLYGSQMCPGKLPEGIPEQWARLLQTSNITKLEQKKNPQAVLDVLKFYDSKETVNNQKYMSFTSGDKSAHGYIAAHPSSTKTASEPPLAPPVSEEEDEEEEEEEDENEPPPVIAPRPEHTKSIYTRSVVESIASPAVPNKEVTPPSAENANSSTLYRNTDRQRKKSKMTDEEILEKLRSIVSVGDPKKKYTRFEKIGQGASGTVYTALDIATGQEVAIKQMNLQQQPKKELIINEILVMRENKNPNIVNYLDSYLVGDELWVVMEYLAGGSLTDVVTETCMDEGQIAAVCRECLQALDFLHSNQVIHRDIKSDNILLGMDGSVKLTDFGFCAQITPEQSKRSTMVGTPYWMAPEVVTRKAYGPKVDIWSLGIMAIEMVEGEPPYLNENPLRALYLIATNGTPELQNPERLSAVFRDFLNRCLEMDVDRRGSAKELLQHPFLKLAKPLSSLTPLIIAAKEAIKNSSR
# [6] = target: T3, Ephrin type-B receptor 3 (Homo sapiens) (UniProt P54753); test: Selectivity interaction (KinomeScan (DiscoverX)) EUB0000618a EPHB3; conditions: at 10 µM
# T3 sequence (whole entry): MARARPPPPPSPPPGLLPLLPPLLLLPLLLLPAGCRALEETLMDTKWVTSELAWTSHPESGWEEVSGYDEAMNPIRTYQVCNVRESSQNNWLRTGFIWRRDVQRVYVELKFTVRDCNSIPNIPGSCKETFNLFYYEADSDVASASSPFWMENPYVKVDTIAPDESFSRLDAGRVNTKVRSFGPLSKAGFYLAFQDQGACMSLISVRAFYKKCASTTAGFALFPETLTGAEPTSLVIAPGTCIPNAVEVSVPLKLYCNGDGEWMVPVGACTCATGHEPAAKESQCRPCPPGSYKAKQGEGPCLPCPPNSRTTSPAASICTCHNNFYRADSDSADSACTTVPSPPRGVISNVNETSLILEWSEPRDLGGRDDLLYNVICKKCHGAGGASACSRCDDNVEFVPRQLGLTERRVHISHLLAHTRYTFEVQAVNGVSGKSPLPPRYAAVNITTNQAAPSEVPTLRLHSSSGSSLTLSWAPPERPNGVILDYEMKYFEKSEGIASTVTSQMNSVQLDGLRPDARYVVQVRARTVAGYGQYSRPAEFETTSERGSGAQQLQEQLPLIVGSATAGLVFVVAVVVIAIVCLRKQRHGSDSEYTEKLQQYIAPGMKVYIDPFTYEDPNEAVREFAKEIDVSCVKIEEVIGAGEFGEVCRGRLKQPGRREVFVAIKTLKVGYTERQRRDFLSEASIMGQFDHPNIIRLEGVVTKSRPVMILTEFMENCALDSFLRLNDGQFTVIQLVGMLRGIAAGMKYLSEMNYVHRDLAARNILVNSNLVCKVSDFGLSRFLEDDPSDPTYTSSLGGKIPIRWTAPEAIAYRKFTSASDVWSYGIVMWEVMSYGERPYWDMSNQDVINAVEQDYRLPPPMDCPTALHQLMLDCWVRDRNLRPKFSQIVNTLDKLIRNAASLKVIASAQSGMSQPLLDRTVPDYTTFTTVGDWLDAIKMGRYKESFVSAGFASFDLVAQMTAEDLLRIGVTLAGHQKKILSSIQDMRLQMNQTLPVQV
# [7] = target: Tyrosine-protein kinase FRK (Homo sapiens) (UniProt P42685); test: Selectivity interaction (KinomeScan (DiscoverX)) EUB0000695a FRK; conditions: at 100 nM
# Tyrosine-protein kinase FRK (Homo sapiens), sequence (P42685 whole entry): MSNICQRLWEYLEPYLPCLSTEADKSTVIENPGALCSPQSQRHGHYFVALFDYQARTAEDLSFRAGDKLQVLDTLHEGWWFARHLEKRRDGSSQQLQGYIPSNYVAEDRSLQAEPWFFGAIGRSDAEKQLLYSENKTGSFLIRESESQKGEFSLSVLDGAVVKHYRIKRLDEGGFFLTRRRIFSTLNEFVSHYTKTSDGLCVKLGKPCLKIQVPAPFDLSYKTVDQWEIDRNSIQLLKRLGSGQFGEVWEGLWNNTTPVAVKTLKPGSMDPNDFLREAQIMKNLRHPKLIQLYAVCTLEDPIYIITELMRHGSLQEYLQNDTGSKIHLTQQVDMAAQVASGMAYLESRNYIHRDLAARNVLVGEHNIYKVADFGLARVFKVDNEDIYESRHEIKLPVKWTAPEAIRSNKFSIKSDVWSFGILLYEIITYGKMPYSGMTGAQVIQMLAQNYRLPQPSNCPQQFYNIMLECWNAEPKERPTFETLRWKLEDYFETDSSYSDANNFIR
# [8] = target: Muscarinic acetylcholine receptor M3 (Homo sapiens, UniProt P20309); test: Selectivity interaction (Panel of non-epigenetic targets (kinases, GPCRs, ion channels, and transporters, Eurofins) ) EUB0000271b CHRM3; conditions: at 1 µM
# Muscarinic acetylcholine receptor M3, sequence (P20309 whole entry, looked up): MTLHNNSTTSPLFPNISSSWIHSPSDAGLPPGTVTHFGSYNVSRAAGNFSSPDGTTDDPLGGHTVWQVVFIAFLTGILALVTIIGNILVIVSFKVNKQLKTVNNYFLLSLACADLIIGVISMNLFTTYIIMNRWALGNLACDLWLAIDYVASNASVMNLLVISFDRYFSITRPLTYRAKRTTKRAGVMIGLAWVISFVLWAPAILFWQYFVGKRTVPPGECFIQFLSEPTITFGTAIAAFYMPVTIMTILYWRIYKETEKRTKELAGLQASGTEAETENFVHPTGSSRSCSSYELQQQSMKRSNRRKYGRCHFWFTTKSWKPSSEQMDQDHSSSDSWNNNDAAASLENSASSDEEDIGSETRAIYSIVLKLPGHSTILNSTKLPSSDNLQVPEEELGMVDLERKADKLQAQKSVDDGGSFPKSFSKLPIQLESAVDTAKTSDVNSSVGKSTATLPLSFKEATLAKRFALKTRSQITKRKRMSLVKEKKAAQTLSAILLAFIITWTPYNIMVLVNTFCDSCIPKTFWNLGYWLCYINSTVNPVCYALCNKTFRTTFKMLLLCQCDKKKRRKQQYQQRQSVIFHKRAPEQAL
smiles,measurement,setting,value
COc1cc(Nc2nc(C)cc(-c3cnn4nc(OC)ccc34)n2)cc(C(F)(F)F)c1,% of control,[1],99%
COc1cc(N(C)c2ccnc3ccc(C(F)(F)F)cc23)cc(OC)c1OC,% binding,[2],97%
Cc1cc(CN)cc(C)c1-c1ncn(C)c1-c1cncn1C,% activity,[3]; at 1 µM,> 90%
same,% activity,[3]; at 10 µM,> 80%
CC[C@@H]1[C@H](F)C(=O)N[C@@H]1COc1nccc2cc(C(N)=O)c(OC)cc12 [ZIMLOVISERTIB],% of inhibition,[4]; at 0.01 µM,7.8%
same,% of inhibition,[4]; at 0.04 µM,5.4%
same,% of inhibition,[4]; at 0.2 µM,9.3%
same,% of inhibition,[4]; at 1 µM,18.4%
same,% of inhibition,[4]; at 5 µM,34.3%
CCC(=O)N1CCN(c2ccc(-n3c(=O)ccc4cnc5ccc(-c6cnc7ccccc7c6)cc5c43)cc2C(F)(F)F)CC1,% of control,[5],100%
O[C@H]1CC[C@H](Nc2ncc3nc(Nc4c(F)cc(F)cc4F)n([C@H]4CCOC4)c3n2)CC1,% of control,[6],84%
Cc1cc(F)c(C(=O)Nc2cccc(-c3nncn3C(C)C)n2)cc1-n1cnc(C2CC2)c1,% of control,[7],100%
Cc1cc(C)cc([C@@H]2c3cc(C)ccc3NC(=O)CN2C(=O)c2ccc(Br)s2)c1,% of inhibition,[8],12%
